# Measurements: patent USRE39682E1, “Farnesyl derivatives and pharmaceutical compositions containing them” (Ramot at Tel Aviv University Ltd., priority 1993, dated 2007)
# Columns and labels:
# [1] = test system: HEC1A, rat1 and ras-transformed rat1 cells; assay: In vitro toxicity: MTT and trypan blue staining; format: cell-based; conditions: human (HEC1A), rat (rat1, ras-transformed rat1), 50 μM
# Excerpt: Cells were counted following 3, 7 and 10 days of beginning of treatments with drugs. For counting, cells were detached from plates with trypsin/EDTA, and collected by a low speed spin in the presence of DMEM/10% FCS. The pelleted cells were resuspended in a small volume of DMEM/10% FCS and counted under the microscope. Viability of cells was estimated by staining with (3-(4,5-dimethylthiosol-2-yl)-2,5-diphenyltetrazolium bromide (MTT) and microscopic examination of the stained and unstained cells, or spectrophotometric estimation (OD490, 590) of the total stain in each well. Non viable cells were estimated by the trypan blue exclusion method.
# In order to determine the long term effects of both FTA and FTS on cell survival, a colorometric method using MTT, which stains only live cells, was employed (Mosmen, F. J. Immunol. Meth., 65, 55-63 (1983), and tryptan blue exclusion staining in which only dead cells are stained, were employed. Cells were incubated with 50 μM of either FTA or FTS for a period of up to 5 days in culture. This concentration is 10-30 times the Ki values of FTS and FTA as calculated above. As control served cells incubated in 0.1% DMSO with no drug.
# in vivo = conditions: Bulb-C, mouse, in vivo, ip
# Protocol: (§1) Seven groups of five mice were used. The mice received a single i.p. dose of FTS in DMSO or the solvent only. Doses used in this experiment ranged from 0.5 mg/kg to 268 mg/kg.
# Bulb-C mice = assay: in vivo
# Protocol: as §1
# [2] = test system: Ha-ras-transformed rat1 cells; assay: Transformed phenotype (multi-layered clumps) of ras-transformed rat1 cells; format: cell-based, rat; conditions: 5 days
# Excerpt: The two compounds had no effect on the morphology of the non-transformed cells. (FIG. 9B and 9C).
# HEC1A cells = assay: Transformed phenotype (multi-layered clumps) of HEC1A cells; format: cell-based, human
# Excerpt: HEC1A cells also grow in multi-layered clumps (FIG. 10A).
# [3] = test system: Rat1 cells stimulated with EGF or bFGF; assay: Mitogenic effect of EGF and bFGF in Rat1 cells; format: cell-based, rat; conditions: 25 μM; for Number of cells (% of control): day 5
# Protocol: The potent […] inhibitor FTS was used to examine selectivity of the drugs towards ras-dependent growth-signaling pathways. In these experiments cells transformed by Erb-B2, that acts upstream of ras in the ras pathway, and cells transformed by V-raf or by T-antigen, that act independently of ras, were studied. The cells were placed at a density of 2×10^3 cells/well and received on the day of plating either solvent (controls) or 25 μM FTS. Cells were counted on day 5 of the experiment. […] At this concentration, however, no effects of FTS on the growth of V-tar transformed or of T-antigen-transformed cells were observed. The results in Table VI also indicate that the mitogenic effect of bFGF and EGF in Rat1 cells is inhibited by FTS.
# [4] = test system: Ha-ras transformed rat1 (EJ) cells; assay: Tumor growth in nude mice implanted with Ha-ras-transformed rat1 cells; format: in vivo, nude mice (CD1-Nu)
# Protocol: Male nude mice (CD1—Nu) were obtained from the Weizmann Institute of Science, Rehovot, Israel. Groups of 5 to 8 mice (3-4 weeks old, 25±2 gr body weight) were used in each experiment for both; controls and FTS treatment. Cells (Ha-ras transformed rat1 (EJ) cells, 2×10^6 cells in 100 μl PBS) were injected systematically (s.c.). Cell implantation and drug administration began on the same day. The EJ cells were prepared from confluent cultures. Cells were detached with trypsin/EDTA, washed with DMEM/10% FCS followed by 3 times PBS washes. A suspension of 2×10^7 cells/ml was prepared and used for experiment within 15-30 min. of preparation.
# FTS was prepared as a stock solution (0.225M) in ethanol. It was diluted just prior to the drug administration with PBS to yield a solution of 1.35 mM FTS, 0.6% ethanol. Under these conditions FTS remained in solution for the period of time required for administration.
# Experimental mice received 100 μl of the FTS solution, respectively, daily or every other day. Controls received the appropriate administration of 0.6% ethanol in PBS. Tumor growth was monitored by daily observations and by size measurement using a millimetric caliper (two dimensions of the tumor size were taken usually twice a week).
# Data were expressed in terms of tumor size (cm^2) in each mouse as a function of time.
# Ha-ras transformed rat1 cells (2×10^6) were implanted beneath the skin of the right hind leg of nude mice. The mice received a systemic s.c. injection of either the solvent (0.6% ethanol in PBS) or FTS, starting on the day of cell implantations. Two sets of experiments were performed. In the one set the mice received 3.6 mg/kg FTS daily. Tumors sizes measured every 3-4 days beginning on day 10 of the experiment. […] Out of the 8 control mice, 6 developed tumors having a size of 4 cm^2 or greater and 2 developed tumors of 2 cm^2 or less. In another set of experiments mice received 1.6 mg/kg FTS every other day.
structure (smiles),measurement,setting,value
"CC(C)=CCC/C(C)=C/CC/C(C)=C/CSc1ccccc1C(=O)O [FTS, (3,7,11-trimethyl-dodeca-2,6,10-trienyl)-2-thiobenzoic acid]",cells stained with trypan blue (dead),[1],less than 5%
same,LD50 at 3 weeks,in vivo,> 100 mg/kg
same,Number of live mice (3 weeks following injection),Bulb-C mice; 0.5 mg/kg single i.p.,5/5
same,Number of live mice (3 weeks following injection),Bulb-C mice; 5.0 mg/kg single i.p.,5/5
same,Number of live mice (3 weeks following injection),Bulb-C mice; 10.0 mg/kg single i.p.,5/5
same,survival,Bulb-C mice; 50 mg/kg or lower single i.p.,all mice survived
same,Number of live mice (3 weeks following injection),Bulb-C mice; 50.0 mg/kg single i.p.,5/5
same,mice out of 5 died,Bulb-C mice; 134 mg/kg single i.p.,2
same,Number of live mice (3 weeks following injection),Bulb-C mice; 134.0 mg/kg single i.p.,3/5
same,Number of live mice (3 weeks following injection),Bulb-C mice; 268.0 mg/kg single i.p.,0/5
same,mortality,Bulb-C mice; highest dose (268 mg/kg) single i.p.,all mice died
same,effect on transformed phenotype,"[2]; 5 μM, FIG. 9E",reversed the transformed phenotype
same,effect on transformed phenotype,"[2]; 10 μM, FIG. 9F",reversed the transformed phenotype
same,effect on multi-layered clumps formation,"HEC1A cells; 10 μM, FIG. 10B",significant reversal of the multi-layered clumps formation
same,effect on multi-layered clumps formation,"HEC1A cells; 50 μM, FIG. 10C",significant reversal of the multi-layered clumps formation
same,effect on the mitogenic effect of bFGF and EGF in Rat1 cells,[3],inhibited
same,Number of cells (% of control),[3]; Ras1 + 10 mg/ml ECP,40 ± 5 % of control
same,Number of cells (% of control),[3]; Ras1 + 50 mg/ml bPCP,42 ± 3 % of control
same,effect on tumor growth,"[4]; 1.6 mg/kg every other day, FIG. 13",inhibitory effects
same,mice out of 8 that developed tumors of 2 cm2 or less,"[4]; 3.6 mg/kg daily, systemic s.c.",6
same,mice out of 8 that developed tumors of greater than 4 cm2,"[4]; 3.6 mg/kg daily, systemic s.c.",2
same,effect on tumor growth,"[4]; 3.6 mg/kg daily, systemic s.c., FIG. 12",profound inhibition of tumor growth
